Values quoted from earlier work as cited in EP4582084A1, “CRYSTAL FORM OF KETOAMIDE DERIVATIVE AND PREPARATION METHOD THEREFOR” (Guangdong Raynovent Biotech Co., Ltd., priority 2022, dated 2024).

Tested on: novel coronavirus
Conditions: in vitro, preclinical trials

Cn1cnc(Cn2c(=O)[nH]/c(=N\c3cc4cn(C)nc4cc3Cl)n(Cc3cc(F)c(F)cc3F)c2=O)n1 [S-217622]
EC50: 0.37 µM
